The term IC50 denotes the midpoint of a concentration-inhibition curve.

One data set deals with L. major.
Test: not given
The arrangement: method as in PMID 37375252. Particulars: isolated from the EtOAc layer; cited from earlier work.
For the compound crossoseamine A, the “cytotoxicity against L. major” value is given as “potent cytotoxicity”.
On to crossoseamine B, for which the “cytotoxicity against L. major” value was “potent cytotoxicity”.

The test system of the next data set is human lung cancer cell line A549. In words: cytotoxicity against A549, MTT method. Particulars: Homo sapiens, A549; MTT, 72 h, n = 3. Format: cell-based. The protocol:
(§1) The anti-Leishmania major activities of the isolated compounds were evaluated using an MTT assay according to an established protocol. In brief, gradient concentrations of sample solutions in dimethyl sulfoxide (DMSO) and L. major (1 × 10^5 parasite/well) in 100 μL of M199 medium were added to a 96-well plate and then incubated for 72 h at 25 °C. An amount of 100 μL MTT solution was then replaced and incubated overnight. The absorbance of formazan solution in DMSO was measured using a microplate reader at 550 nm. Miltefosine was used as a positive control. The human lung cancer cell line A549 was cultured in 10% FCS-supplemented DMEM. The cytotoxicity assay of isolated compounds was also performed in 96-well plates using the MTT method. Various concentrations of samples in DMSO and A549 (5 × 10^3 cells/well) were cultured in a CO2 incubator for 72 h. The medium was then replaced with 100 μL MTT solution and incubated for 1.5 h in the same condition. The viability was calculated by the absorbance of formazan at 550 nm using a microplate reader. The cytotoxicity assay against the Vero cell line was conducted as in A549, which is mentioned above. Doxorubicin was used as a positive control. The concentration gradient of each activity was essentially set as 100, 50, 25, 12.5, and 6.25 μg/mL (Figures S67–S69).
For orientation: Formazan colour is commonly taken as a measure of viable cells.
Regarding `C=C1C(=O)O[C@H]2C3=C(C)CCC(=O)[C@]3(C)C[C@H](OC(=O)C=C(C)C)[C@@H]12` [Compound 1, Crossostenin A], the 50% inhibitory concentration (IC50) amounted to 2.97 ± 0.58 µM.
Same read-out and setting: the result for `C=C1C(=O)O[C@H]2C3=C(C)CCC(=O)[C@]3(C)C[C@H](OC(=O)/C(C)=C/C)[C@@H]12` [Compound 2, Crossostenin B] reads 2.3 ± 0.26 µM; that for `C=C(C(=O)OC)[C@@H]1[C@@H](OC(=O)/C(C)=C/C)C[C@@]2(C)C(=O)CCC(C)=C2[C@H]1O` [Compound 3, Crossostenin C], 5.59 ± 0.72 µM.
Still for that read-out and setting: the result for `C=C(C(=O)OC)[C@@H]1[C@@H](OC(=O)/C(C)=C\C)C[C@@]2(C)C(=O)CCC(C)=C2[C@H]1O` [Compound 4, Crossostenin D] reads 17.1 ± 1.86 µM.
On the same count and under the same terms, then `CC(=O)OC1CC2(C)C(=O)CCC(C)=C2C2OC(=O)C(CN3CCCC3C(=O)O)C12` (stereo not drawn) [Compound 5, Crossoseamine C], with 17.4 ± 1.86 µM.
With `CC1=C2C3OC(=O)C(CN4CCCC4C(=O)O)C3CCC2(C)C(=O)CC1` (stereo not drawn) [Compound 6, Crossoseamine D], the midpoint of inhibition, the IC50, lay at 83.9 ± 12.1 µM.
On to `CC1=C2C3OC(=O)C(CN4CCCC4C(=O)O)C3C(O)CC2(C)C(=O)CC1` (stereo not drawn) [Compound 7, Crossoseamine E], for which 58.9 ± 13.6 µM corresponded to half-maximal inhibition (IC50).
Turning to `COc1cccc2c1C(=O)c1c(O)c3c(c(O)c1C2=O)C[C@@](O)(C(=O)CO)C[C@@H]3O[C@H]1C[C@H](N)[C@H](O)[C@H](C)O1` [doxorubicin, reference compound], the IC50 was 0.45 ± 0.13 µM.

The data set is the same for the next values; noted with them: by comparing the cytotoxicity to the Vero cells.
In the case of `C=C1C(=O)O[C@H]2C3=C(C)CCC(=O)[C@]3(C)C[C@H](OC(=O)C=C(C)C)[C@@H]12` [Compound 1, Crossostenin A], the “SI2 (selective index, SI to A549)” value is 2.0.
As for `C=C1C(=O)O[C@H]2C3=C(C)CCC(=O)[C@]3(C)C[C@H](OC(=O)/C(C)=C/C)[C@@H]12` [Compound 2, Crossostenin B], the “SI2 (selective index, SI to A549)” value was 3.4.

A further data set has as its system Leishmania major. In words: anti-Leishmania major activity, MTT assay. Type of data set: cell-based. Particulars: Leishmania major; MTT, 72 h, 25 °C, n = 3; read-out: IC50 L. major. The protocol:
as §1
Take `C=C1C(=O)O[C@H]2C3=C(C)CCC(=O)[C@]3(C)C[C@H](OC(=O)C=C(C)C)[C@@H]12` [Compound 1, Crossostenin A]: the half-maximal inhibitory concentration (IC50) came to 0.81 ± 0.26 µM.
On the same count and under the same terms, the result for `C=C1C(=O)O[C@H]2C3=C(C)CCC(=O)[C@]3(C)C[C@H](OC(=O)/C(C)=C/C)[C@@H]12` [Compound 2, Crossostenin B] reads 0.96 ± 0.17 µM; that for `C=C(C(=O)OC)[C@@H]1[C@@H](OC(=O)/C(C)=C/C)C[C@@]2(C)C(=O)CCC(C)=C2[C@H]1O` [Compound 3, Crossostenin C], 3.75 ± 0.98 µM.
Still for that read-out and setting: then `C=C(C(=O)OC)[C@@H]1[C@@H](OC(=O)/C(C)=C\C)C[C@@]2(C)C(=O)CCC(C)=C2[C@H]1O` [Compound 4, Crossostenin D], with 7.66 ± 2.26 µM; and `CC(=O)OC1CC2(C)C(=O)CCC(C)=C2C2OC(=O)C(CN3CCCC3C(=O)O)C12` (stereo not drawn) [Compound 5, Crossoseamine C], with 4.72 ± 1.26 µM; and `CC1=C2C3OC(=O)C(CN4CCCC4C(=O)O)C3CCC2(C)C(=O)CC1` (stereo not drawn) [Compound 6, Crossoseamine D], with 52.6 ± 11.6 µM.
As to `CC1=C2C3OC(=O)C(CN4CCCC4C(=O)O)C3C(O)CC2(C)C(=O)CC1` (stereo not drawn) [Compound 7, Crossoseamine E], the IC50 stood at 30.8 ± 5.81 µM.
Still for that read-out and setting: then `CCCCCCCCCCCCCCCCOP(=O)([O-])OCC[N+](C)(C)C` [miltefosine, reference compound], with 18.1 ± 1.69 µM.

The same data set, now with this note: by comparing the cytotoxicity to the Vero cells.
For the compound `C=C1C(=O)O[C@H]2C3=C(C)CCC(=O)[C@]3(C)C[C@H](OC(=O)C=C(C)C)[C@@H]12` [Compound 1, Crossostenin A], the “SI1 (selective index, SI to L. major)” value came out at 7.4.
For `C=C1C(=O)O[C@H]2C3=C(C)CCC(=O)[C@]3(C)C[C@H](OC(=O)/C(C)=C/C)[C@@H]12` [Compound 2, Crossostenin B], the “SI1 (selective index, SI to L. major)” value was determined as 8.2.

In the next data set the test system is Vero cells. Nature of the data set: cytotoxicity against Vero cell line, MTT method. Format: cell-based. Particulars: Chlorocebus sabaeus, 72 h, n = 3. The protocol:
as §1
The compound `C=C1C(=O)O[C@H]2C3=C(C)CCC(=O)[C@]3(C)C[C@H](OC(=O)C=C(C)C)[C@@H]12` [Compound 1, Crossostenin A] returned a half-maximal inhibitory concentration (IC50) of 5.99 ± 0.76 µM.
Turning to `C=C1C(=O)O[C@H]2C3=C(C)CCC(=O)[C@]3(C)C[C@H](OC(=O)/C(C)=C/C)[C@@H]12` [Compound 2, Crossostenin B], the half-maximal inhibitory concentration (IC50) stood at 7.84 ± 0.61 µM.
For the compound `C=C(C(=O)OC)[C@@H]1[C@@H](OC(=O)/C(C)=C/C)C[C@@]2(C)C(=O)CCC(C)=C2[C@H]1O` [Compound 3, Crossostenin C], 6.2 ± 1.36 µM corresponded to half-maximal inhibition (IC50).
The same measure, in the same setting: the result for `C=C(C(=O)OC)[C@@H]1[C@@H](OC(=O)/C(C)=C\C)C[C@@]2(C)C(=O)CCC(C)=C2[C@H]1O` [Compound 4, Crossostenin D] reads 17.2 ± 1.36 µM; that for `CC(=O)OC1CC2(C)C(=O)CCC(C)=C2C2OC(=O)C(CN3CCCC3C(=O)O)C12` (stereo not drawn) [Compound 5, Crossoseamine C], 11.4 ± 0.98 µM; that for `CC1=C2C3OC(=O)C(CN4CCCC4C(=O)O)C3CCC2(C)C(=O)CC1` (stereo not drawn) [Compound 6, Crossoseamine D], 48.5 ± 4.07 µM.
`CC1=C2C3OC(=O)C(CN4CCCC4C(=O)O)C3C(O)CC2(C)C(=O)CC1` (stereo not drawn) [Compound 7, Crossoseamine E] registered an IC50 of 23.8 ± 2.47 µM.
In the case of `COc1cccc2c1C(=O)c1c(O)c3c(c(O)c1C2=O)C[C@@](O)(C(=O)CO)C[C@@H]3O[C@H]1C[C@H](N)[C@H](O)[C@H](C)O1` [doxorubicin, reference compound], 3.82 ± 0.79 µM corresponded to half-maximal inhibition (IC50).

Values taken from PMC10746127, “New ψ-Santonin Derivatives from Crossostephium chinense and Their Anti-Proliferative Activities against Leishmania major and Human Cancer Cells A549” (Molecules, 2023).
